Patent publication US6596751B2, “α-substituted carboxylic acid derivatives” (Sankyo Company Limited, priority 1999, dated 2003)
Counter-ions that a name gives are not always drawn.

Test system: KK mice (4-5 months old) suffering from diabetes mellitus
Experiment: Hypoglycemic activity: blood sugar lowering in diabetic KK mice fed the test compound
Type: in vivo
Conditions: 4 per group, powdered feed containing 0.01% of test compound for 3 days, plasma glucose vs control group
Excerpt: Blood was collected from the tail veins of KK mice (4-5 months old) suffering from diabetes mellitus, and it was subjected to an assay of the blood sugar level. The mice were divided in groups (4 mice per group) as to have equal blood sugar levels on average in each group. Powdered mouse feed (F-1, Funabashi Farm) containing 0.01% of a test compound was given the mice for 3 days. Those mice groups fed with the test compound were referred to as “drug treated group”. Further, those groups fed with powdered feed free of the test compound were referred to as “control group”. Blood was collected from the tail veins of the mice 3 days later and was subjected to a centrifuge, and the glucose concentration in the resultant plasma was assayed with a glucose analyzer (Glucoloader, A&T Company). The average blood sugar lowering rate was calculated from the following formula:
Blood sugar lowering rate (%)=(Average blood sugar level in control group−Average blood sugar level in drug treated group)×100/Blood sugar level in control group

Q: Which “Blood sugar lowering rate (%)” value does the source give for Cc1cc(Oc2ccc3nc(COc4ccc(C[C@H](Nc5ccccc5C(=O)c5ccccc5)C(=O)O)cc4)n(C)c3c2)cc(C)c1N [Example 20, 4-[6-(4Amino-3 ,5dimethylphenoxy)-1-methyl-1H-benzimidazol-2-ylmethoxy]-N-(2-benzoylphenyl)phenylalanine dihydrochloride] here?
A: 40.0%

Q: How did the “Blood sugar lowering rate (%)” value turn out when Cn1c(COc2ccc(CC(OCc3ccc(F)cc3)C(=O)O)cc2)nc2ccc(Sc3cc(C(C)(C)C)c(O)c(C(C)(C)C)c3)cc21 (centres unmarked) [Example 4, 3-[4-[6-(3,5-Di-t-butyl-4-hydroxyphenylthio)-1-methyl-1H-benzimidazol-2-ylmethoxy]phenyl]-2-(4-fluorobenzyloxy)propionic acid] was run?
A: 40.8%

Q: How did the “Blood sugar lowering rate (%)” value turn out when CCOC(Cc1ccc(OCc2nc3ccc(OC)cc3n2C)cc1)C(=O)O.Cl (centres unmarked) [Example 9, 2-Ethoxy-3-[4-(1-methyl-6-methoxy-1H-benzimidazol-2-ylmethoxy)phenyl]propionic acid hydrochloride] was run?
A: 48.4%

Q: Cn1c(COc2ccc(CC(OCc3ccc(F)cc3)C(=O)O)cc2)nc2ccc(Oc3ccc(C45CC6CC(CC(C6)C4)C5)cc3)cc21 (centres unmarked) [Example 2, 3-[4-[6-(4-Adamantan-1-ylphenoxy)-1-methyl-1H-benzimidazol-2-ylmethoxy]phenyl]-2-(4-fluorobenzyloxy)propionic acid] was tested. Which “Blood sugar lowering rate (%)” value did it give?
A: 58.5%

Q: With COC(=O)[C@H](Cc1ccc(OCc2nc3ccc(OC)cc3n2C)cc1)Nc1ccccc1C(=O)c1ccccc1.Cl [Example 16, N-(2-Benzoylphenyl)-4-(6-methoxy-1-methyl-1H-benzimidazol-2-ylmethoxy)phenylalanine methyl ester hydrochloride] as the molecule, how does the “Blood sugar lowering rate (%)” value read?
A: 32.1%
